Test results taken from US8507476B2, “Substituted arylamide diazepinopyrimidone derivatives” (Sanofi, priority 2008, dated 2013).
Where a name gives a salt, the structure may show the parent alone.

Tests used:
GSK3β = GSK3β (Homo sapiens, UniProt P49841); experiment: Inhibitory activity against GSK3β (33P-ATP phosphorylation of prephosphorylated GS1 peptide); format: biochemical; settings: protocol 4: commercial GSK3beta (Millipore), 7.5 μM GS1 peptide, 10 μM ATP, 90 minutes at room temperature
Experimental: Inhibitory Activity of the Medicament of the Present Invention Against GSK3β Four different protocols can be used. In a first protocol: 7.5 μM of prephosphorylated GS1 peptide and 10 μM ATP (containing 300,000 cpm of ^33P-ATP) were incubated in 25 mM Tris-HCl, pH 7.5, 0.6 mM DTT, 6 mM MgCl2, 0.6 mM EGTA, 0.05 mg/ml BSA buffer for 1 hour at room temperature in the presence of GSK3beta (total reaction volume: 100 microliters). In a second protocol: 4.1 μM of prephosphorylated GS1 peptide and 42 μM ATP (containing 260,000 cpm ^33P-ATP) were incubated in 80 mM Mes-NaOH, pH 6.5, 1 mM Mg acetate, 0.5 mM EGTA, 5 mM 2-mercaptoethanol, 0.02% Tween 20, 10% glycerol buffer for 2 hours at room temperature in the presence of GSK3beta. In a third protocol: 7.5 μM of prephosphorylated GS1 peptide and 10 μM ATP (containing 300,000 cpm of ^33P-ATP) were incubated in 50 mM Hepes, pH 7.2, 1 mM DTT, 1 mM MgCl2, 1 mM EGTA, 0.01% Tween 20 buffer for one hour at room temperature in the presence of GSK3beta (total reaction volume: 100 microliters). In a fourth protocol: 7.5 μM of prephosphorylated GS1 peptide and 10 μM ATP (containing 300,000 cpm of ^33P-ATP) were incubated in 50 mM Hepes, pH 7.2, 1 mM DTT, 1 mM MgCl2, 1 mM EGTA, 0.01% Tween 20 buffer for 90 minutes at room temperature in the presence of commercial GSK3beta (Millipore) (total reaction volume: 100 microliters). Inhibitors were solubilised in DMSO (final solvent concentration in the reaction medium, 1%). The reaction was stopped with 100 microliters of a solution made of 25 g polyphosphoric acid (85% P2O5), 126 ml 85% H3PO4, H2O to 500 ml and then diluted to 1:100 before use. An aliquot of the reaction mixture was then transferred to Whatman P81 cation exchange filters and rinsed with the solution described above. Incorporated ^33P radioactivity was determined by liquid scintillation spectrometry. The phosphorylated GS-1 peptide had the following sequence: NH2-[…](P)EDEE-COOH. (Woodgett, J. R. (1989) Analytical Biochemistry 180, 237-241.

Chain of GSK3β (P49841 whole entry): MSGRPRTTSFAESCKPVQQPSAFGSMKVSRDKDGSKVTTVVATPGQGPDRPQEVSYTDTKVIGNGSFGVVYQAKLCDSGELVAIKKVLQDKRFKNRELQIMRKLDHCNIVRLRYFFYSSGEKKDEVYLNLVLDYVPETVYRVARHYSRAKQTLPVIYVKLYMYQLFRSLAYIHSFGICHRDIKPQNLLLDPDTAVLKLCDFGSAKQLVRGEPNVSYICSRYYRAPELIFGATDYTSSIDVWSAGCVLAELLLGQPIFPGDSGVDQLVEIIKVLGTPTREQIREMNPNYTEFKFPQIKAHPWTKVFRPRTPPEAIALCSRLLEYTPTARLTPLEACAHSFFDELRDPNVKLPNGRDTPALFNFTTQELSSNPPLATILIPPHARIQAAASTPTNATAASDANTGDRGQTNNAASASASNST

Compound | IC50 (GSK3β) | melting point
CCOC(=O)N1CCn2c(nc(-c3ccncc3)cc2=O)C(NC(=O)c2ccc(F)cc2OC)C1 (racemic) [compound 35, (+/−)-9-(4-Fluoro-2-methoxy-benzoylamino)-4-oxo-2-pyridin-4-yl-5,6,8,9-tetrahydro-4H-1,4a,7-triaza-benzocycloheptene-7-carboxylic acid ethyl ester] | 12 nM | 210 to 212 °C
CCOC(=O)N1CCn2c(nc(-c3ccncn3)cc2=O)C(NC(=O)c2ccccc2OC)C1 (racemic) [compound 21, (+/−)-9-(2-Methoxy-benzoylamino)-4-oxo-2-pyrimidin-4-yl-5,6,8,9-tetrahydro-4H-1,4a,7-triaza-benzocycloheptene-7-carboxylic acid ethyl ester] | 5 nM | 182 to 184 °C
COc1cc(Cl)ccc1C(=O)NC1CNCCn2c1nc(-c1ccncn1)cc2=O (single isomer, unassigned; (+)) [Compound No. 12, (+)-4-Chloro-2-methoxy-N-(4-oxo-2-pyrimidin-4-yl-4,5,6,7,8,9-hexahydro-1,4a,7-triaza-benzocyclohepten-9-yl)-benzamide] | 0.3 nM | 240 to 242 °C
COc1cc(Cl)ccc1C(=O)NC1CN(C2CCCC2)CCn2c1nc(-c1ccncn1)cc2=O (racemic) (as salt: HCl) [compound 7, (+/−)-4-Chloro-N-(7-cyclopentyl-4-oxo-2-pyrimidin-4-yl-4,5,6,7,8,9-hexahydro-1,4a,7-triaza-benzocyclohepten-9-yl)-2-methoxy-benzamide] |  | 243 to 245 °C
COc1cc(Cl)ccc1C(=O)NC1CN(C2CCCC2)CCn2c1nc(-c1ccncn1)cc2=O (racemic) [compound 7, (+/−)-4-Chloro-N-(7-cyclopentyl-4-oxo-2-pyrimidin-4-yl-4,5,6,7,8,9-hexahydro-1,4a,7-triaza-benzocyclohepten-9-yl)-2-methoxy-benzamide] | 46 nM | 
